In the NIST ThermoML archive (doi:10.1016/j.jct.2016.10.023):

Assay: xn = mol fraction of the nth substance listed
Details: Constant-volume piezometry

CCCCC [pentane] + CCCO
mass density [kg/m3]
Details	Fluid (supercritical or subcritical phases)	Gas
518.15 K, 4877 kPa, x1 = 0.2	220.15	–
518.15 K, 4965 kPa, x1 = 0.2	259.26	–
518.15 K, 4994 kPa, x1 = 0.2	272.43	–
518.15 K, 5010 kPa, x1 = 0.2	290.61	–
523.15 K, 954 kPa, x1 = 0.5	–	15.52
523.15 K, 1314 kPa, x1 = 0.8	–	22.52
523.15 K, 1549 kPa, x1 = 0.2	–	24.93
523.15 K, 1732 kPa, x1 = 0.5	–	29.98
523.15 K, 1978 kPa, x1 = 0.8	–	36.69
523.15 K, 2284 kPa, x1 = 0.5	–	40.49
523.15 K, 2704 kPa, x1 = 0.5	–	51.09
523.15 K, 2890 kPa, x1 = 0.8	–	58.41
523.15 K, 3111 kPa, x1 = 0.2	–	53.01
523.15 K, 3416 kPa, x1 = 0.5	–	67.52
523.15 K, 3421 kPa, x1 = 0.8	–	73.79
523.15 K, 3614 kPa, x1 = 0.5	–	72.6
523.15 K, 3631 kPa, x1 = 0.9	83.38	–
523.15 K, 4037 kPa, x1 = 0.2	–	91.41
523.15 K, 4041 kPa, x1 = 0.5	–	88.91
523.15 K, 4261 kPa, x1 = 0.5	–	95.85
523.15 K, 4356 kPa, x1 = 0.8	106.4	–
523.15 K, 4459 kPa, x1 = 0.2	114.35	114.35
523.15 K, 4600 kPa, x1 = 0.9	123.35	–
523.15 K, 4817 kPa, x1 = 0.9	134.12	–
523.15 K, 4864 kPa, x1 = 0.2	150.34	–
523.15 K, 4871 kPa, x1 = 0.5	121.89	–
523.15 K, 5043 kPa, x1 = 0.2	175.61	–
523.15 K, 5108 kPa, x1 = 0.2	189.64	–
523.15 K, 5158 kPa, x1 = 0.8	140.3	–
523.15 K, 5206 kPa, x1 = 0.5	144.11	–
523.15 K, 5208 kPa, x1 = 0.2	220.1	–
523.15 K, 5292 kPa, x1 = 0.2	245.47	–
523.15 K, 5316 kPa, x1 = 0.9	163.95	–
523.15 K, 5328 kPa, x1 = 0.2	259.2	–
523.15 K, 5343 kPa, x1 = 0.2	262.9	–
523.15 K, 5359 kPa, x1 = 0.5	154.49	–
523.15 K, 5364 kPa, x1 = 0.2	272.36	–
523.15 K, 5370 kPa, x1 = 0.8	156.04	–
523.15 K, 5423 kPa, x1 = 0.2	290.54	–
523.15 K, 5483 kPa, x1 = 0.2	306.83	–
523.15 K, 5508 kPa, x1 = 0.2	311.06	–
523.15 K, 5518 kPa, x1 = 0.5	165.14	–
523.15 K, 5551 kPa, x1 = 0.2	318.77	–
523.15 K, 5586 kPa, x1 = 0.8	169.78	–
523.15 K, 5668 kPa, x1 = 0.8	176.03	–
523.15 K, 5707 kPa, x1 = 0.2	341.26	–
523.15 K, 5707 kPa, x1 = 0.5	182.85	–
523.15 K, 5717 kPa, x1 = 0.9	189.45	–
523.15 K, 5731 kPa, x1 = 0.2	344.05	–
523.15 K, 5763 kPa, x1 = 0.8	180.83	–
523.15 K, 5911 kPa, x1 = 0.9	202.38	–
523.15 K, 5913 kPa, x1 = 0.5	200.39	–
523.15 K, 5925 kPa, x1 = 0.8	193.16	–
523.15 K, 6011 kPa, x1 = 0.5	210.22	–
523.15 K, 6117 kPa, x1 = 0.5	224.05	–
523.15 K, 6195 kPa, x1 = 0.9	220.68	–
523.15 K, 6235 kPa, x1 = 0.5	241.5	–
523.15 K, 6236 kPa, x1 = 0.8	213.85	–
523.15 K, 6242 kPa, x1 = 0.2	378.64	–
523.15 K, 6294 kPa, x1 = 0.5	250.69	–
523.15 K, 6320 kPa, x1 = 0.8	219.62	–
523.15 K, 6339 kPa, x1 = 0.2	383.45	–
523.15 K, 6353 kPa, x1 = 0.5	259.74	–
523.15 K, 6399 kPa, x1 = 0.9	233.06	–
523.15 K, 6454 kPa, x1 = 0.9	236.53	–
523.15 K, 6480 kPa, x1 = 0.5	270.56	–
523.15 K, 6513 kPa, x1 = 0.9	240.93	–
523.15 K, 6560 kPa, x1 = 0.2	391.28	–
523.15 K, 6567 kPa, x1 = 0.9	244.24	–
523.15 K, 6580 kPa, x1 = 0.8	234.7	–
523.15 K, 6628 kPa, x1 = 0.5	282.38	–
523.15 K, 6748 kPa, x1 = 0.8	245.34	–
523.15 K, 6923 kPa, x1 = 0.5	298.67	–
